# ChEMBL document CHEMBL2440076, “New triarylpyrazoles as broad-spectrum anticancer agents: design, synthesis, and biological evaluation” (Eur J Med Chem, 2013)
# Assays:
# Assay type in all cases: functional
# [1] = Growth inhibition of human HCC2998 cells assessed as cell growth at 3X10'-5 M after 48 hrs by sulforhodamine B assay; details: HCC 2998, 48 h, read-out: Activity
# NCI-H226 = test: Growth inhibition of human NCI-H226 cells assessed as cell growth at 3X10'-7 M after 48 hrs by sulforhodamine B assay; details: NCI-H226, 48 h, read-out: Activity
# [2] = Growth inhibition of human NCI-ADR-RES cells assessed as cell growth at 3X10'-9 M after 48 hrs by sulforhodamine B assay; details: read-out: Activity
# SNB-19 = test: Growth inhibition of human SNB19 cells assessed as cell growth at 3X10'-6 M after 48 hrs by sulforhodamine B assay; details: SNB-19, 48 h, read-out: Activity
# KM12 [3] = test: Growth inhibition of human KM12 cells assessed as cell growth at 3X10'-5 M after 48 hrs by sulforhodamine B assay; details: KM12, 48 h, read-out: Activity
# UACC-257 = test: Growth inhibition of human UACC257 cells assessed as cell growth at 3X10'-7 M after 48 hrs by sulforhodamine B assay; details: UACC-257, 48 h, read-out: Activity
# SK-OV-3 [4] = test: Growth inhibition of human SKOV3 cells assessed as cell growth at 3X10'-7 M after 48 hrs by sulforhodamine B assay; details: SK-OV-3, 48 h, read-out: Activity
# KM12 [5] = test: Growth inhibition of human KM12 cells assessed as cell growth at 3X10'-8 M after 48 hrs by sulforhodamine B assay; details: KM12, 48 h, read-out: Activity
# OVCAR-5 [6] = test: Growth inhibition of human OVCAR5 cells assessed as cell growth at 3X10'-6 M after 48 hrs by sulforhodamine B assay; details: OVCAR-5, 48 h, read-out: Activity
# SW-620 = test: Growth inhibition of human SW620 cells assessed as cell growth at 3X10'-7 M after 48 hrs by sulforhodamine B assay; details: SW-620, 48 h, read-out: Activity
# K562 = test: Growth inhibition of human K562 cells assessed as cell growth at 3X10'-7 M after 48 hrs by sulforhodamine B assay; details: K562, 48 h, read-out: Activity
# HOP-62 = test: Growth inhibition of human HOP62 cells assessed as cell growth at 3X10'-6 M after 48 hrs by sulforhodamine B assay; details: HOP-62, 48 h, read-out: Activity
# NCI-H23 = test: Growth inhibition of human NCI-H23 cells assessed as cell growth at 3X10'-5 M after 48 hrs by sulforhodamine B assay; details: NCI-H23, 48 h, read-out: Activity
# OVCAR-3 = test: Growth inhibition of human OVCAR3 cells assessed as cell growth at 3X10'-9 M after 48 hrs by sulforhodamine B assay; details: OVCAR-3, 48 h, read-out: Activity
# OVCAR-4 = test: Growth inhibition of human OVCAR4 cells assessed as cell growth at 3X10'-6 M after 48 hrs by sulforhodamine B assay; details: OVCAR-4, 48 h, read-out: Activity
# MCF7 = test: Growth inhibition of human MCF7 cells assessed as cell growth at 3X10'-5 M after 48 hrs by sulforhodamine B assay; details: MCF7, 48 h, read-out: Activity
# [7] = Growth inhibition of human HCC2998 cells assessed as cell growth at 3X10'-9 M after 48 hrs by sulforhodamine B assay; details: HCC 2998, 48 h, read-out: Activity
# TK-10 = test: Growth inhibition of human TK10 cells assessed as cell growth at 3X10'-9 M after 48 hrs by sulforhodamine B assay; details: TK-10, 48 h, read-out: Activity
# HCT-116 = test: Growth inhibition of human HCT116 cells assessed as cell growth at 3X10'-9 M after 48 hrs by sulforhodamine B assay; details: HCT-116, 48 h, read-out: Activity
# NCI-H322M = test: Growth inhibition of human NCI-H322M cells assessed as cell growth at 3X10'-8 M after 48 hrs by sulforhodamine B assay; details: read-out: Activity
# BT-549 = test: Growth inhibition of human BT549 cells assessed as cell growth at 3X10'-7 M after 48 hrs by sulforhodamine B assay; details: BT-549, 48 h, read-out: Activity
# [8] = Growth inhibition of human Hs 578T cells assessed as cell growth at 3X10'-6 M after 48 hrs by sulforhodamine B assay; details: read-out: Activity
# HCT-15 = test: Growth inhibition of human HCT15 cells assessed as cell growth at 3X10'-6 M after 48 hrs by sulforhodamine B assay; details: HCT-15, 48 h, read-out: Activity
# UACC-62 = test: Growth inhibition of human UACC62 cells assessed as cell growth at 3X10'-9 M after 48 hrs by sulforhodamine B assay; details: UACC-62, 48 h, read-out: Activity
# OVCAR-5 [9] = test: Growth inhibition of human OVCAR5 cells assessed as cell growth at 3X10'-8 M after 48 hrs by sulforhodamine B assay; details: OVCAR-5, 48 h, read-out: Activity
# SK-OV-3 [10] = test: Growth inhibition of human SKOV3 cells assessed as cell growth at 3X10'-5 M after 48 hrs by sulforhodamine B assay; details: SK-OV-3, 48 h, read-out: Activity
# MOLT-4 = test: Growth inhibition of human MOLT4 cells assessed as cell growth at 3X10'-7 M after 48 hrs by sulforhodamine B assay; details: MOLT-4, 48 h, read-out: Activity
# LOX IMVI = test: Growth inhibition of human LOXIMVI cells assessed as cell growth at 3X10'-7 M after 48 hrs by sulforhodamine B assay; details: read-out: Activity
# Malme-3M = test: Growth inhibition of human MALME-3M cells assessed as cell growth at 3X10'-5 M after 48 hrs by sulforhodamine B assay; details: read-out: Activity
# RPMI-8226 = test: Growth inhibition of human RPMI8226 cells assessed as cell growth at 3X10'-6 M after 48 hrs by sulforhodamine B assay; details: RPMI-8226, 48 h, read-out: Activity
# SK-MEL-2 = test: Growth inhibition of human SK-MEL-2 cells assessed as cell growth at 3X10'-9 M after 48 hrs by sulforhodamine B assay; details: SK-MEL-2, 48 h, read-out: Activity
# OVCAR-5 [11] = test: Growth inhibition of human OVCAR5 cells assessed as cell growth at 3X10'-9 M after 48 hrs by sulforhodamine B assay; details: OVCAR-5, 48 h, read-out: Activity
# ACHN = test: Growth inhibition of human ACHN cells assessed as cell growth at 3X10'-8 M after 48 hrs by sulforhodamine B assay; details: read-out: Activity
smiles,measurement,setting,value
O=C(Nc1cccc(-n2cc(-c3ccncc3)c(-c3ccc(Cl)c(O)c3)n2)c1)Nc1cccc(C(F)(F)F)c1,growth at 30 µM,[1],1%
same,growth at 0.3 µM,NCI-H226,98%
same,growth at 0.003 µM,[2],99%
same,growth at 3 µM,SNB-19,36%
same,growth at 30 µM,KM12 [3],1%
same,growth at 0.3 µM,UACC-257,92%
same,growth at 0.3 µM,SK-OV-3 [4],105%
same,growth at 0.03 µM,KM12 [5],95%
same,growth at 3 µM,OVCAR-5 [6],97%
same,growth at 0.3 µM,SW-620,101%
same,growth at 0.3 µM,K562,101%
same,growth at 3 µM,HOP-62,70%
same,growth at 30 µM,NCI-H23,6%
same,growth at 0.003 µM,OVCAR-3,96%
same,growth at 3 µM,OVCAR-4,49%
same,growth at 30 µM,MCF7,2%
same,growth at 0.003 µM,[7],97%
same,growth at 0.003 µM,TK-10,94%
same,growth at 0.003 µM,HCT-116,96%
same,growth at 0.03 µM,NCI-H322M,95%
same,growth at 0.3 µM,BT-549,102%
same,growth at 3 µM,[8],50%
same,growth at 3 µM,HCT-15,27%
same,growth at 0.003 µM,UACC-62,98%
same,growth at 0.03 µM,OVCAR-5 [9],100%
same,growth at 30 µM,SK-OV-3 [10],15%
same,growth at 0.3 µM,MOLT-4,97%
same,growth at 0.3 µM,LOX IMVI,97%
same,growth at 30 µM,Malme-3M,-10%
same,growth at 3 µM,RPMI-8226,25%
same,growth at 0.003 µM,SK-MEL-2,93%
same,growth at 0.003 µM,OVCAR-5 [11],95%
same,growth at 0.03 µM,ACHN,101%
